The target of one assay is Serine protease 1 (Homo sapiens, UniProt P07477).
The next assay concerns the target Coagulation factor X (Homo sapiens, UniProt P00742). The experiment in a line: Inhibitory activity against coagulation factor X.

Chain of Coagulation factor X (P00742 41-179 limits assumed): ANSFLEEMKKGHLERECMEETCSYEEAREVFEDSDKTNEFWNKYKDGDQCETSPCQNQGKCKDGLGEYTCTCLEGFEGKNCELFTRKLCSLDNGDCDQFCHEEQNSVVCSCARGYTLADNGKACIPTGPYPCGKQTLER
Chain of Coagulation factor X (P00742 235-488 limits assumed): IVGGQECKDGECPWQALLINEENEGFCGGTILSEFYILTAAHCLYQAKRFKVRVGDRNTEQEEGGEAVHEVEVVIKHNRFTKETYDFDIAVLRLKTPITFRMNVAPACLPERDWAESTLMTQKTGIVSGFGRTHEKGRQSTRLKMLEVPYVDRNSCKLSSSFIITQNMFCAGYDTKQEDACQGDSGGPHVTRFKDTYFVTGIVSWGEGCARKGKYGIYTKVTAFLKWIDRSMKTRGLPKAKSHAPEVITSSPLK
Chain of Serine protease 1 (P07477 whole entry): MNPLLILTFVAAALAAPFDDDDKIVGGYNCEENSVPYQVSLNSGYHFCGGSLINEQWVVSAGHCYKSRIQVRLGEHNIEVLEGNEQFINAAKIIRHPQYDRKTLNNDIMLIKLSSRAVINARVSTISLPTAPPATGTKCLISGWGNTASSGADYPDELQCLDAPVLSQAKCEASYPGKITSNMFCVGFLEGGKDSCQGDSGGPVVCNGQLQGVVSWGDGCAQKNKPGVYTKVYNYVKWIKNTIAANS
Description for Serine protease 1: Inhibitory activity against trypsin

As usually defined, the IC50 is the concentration needed to halve the response being measured. Low values mean greater potency, high ones weaker potency. Take `CC(C)Nc1nc(Cl)c(-c2cc(N)cc(C(=O)O)c2)n(CC(=O)NCc2ccc(C(=N)N)cc2)c1=O`: the IC50 at Serine protease 1 was 64 nM; against Coagulation factor X, more than 100000 nM.

As for `N=C(N)c1ccc(CNC(=O)Cn2c(-c3cccc(N)c3)c(Cl)nc(NC3CCC3)c2=O)cc1`, the figures for the concentration for half-maximal inhibition (IC50) on Serine protease 1 and at Coagulation factor X were 32 nM and more than 100000 nM, respectively. On to `N=C(N)NCCC[C@H](NC(=O)Cn1c(Cc2ccccc2)c(Cl)nc(NCCc2ccccc2)c1=O)C(=O)c1nccs1`, for which the midpoint of inhibition against Serine protease 1, the IC50, lay at 470 nM. This lies in the sub-micromolar range. On to `N=C(N)NCCC[C@H](NC(=O)Cn1c(-c2ccccc2)c(Cl)nc(NCCc2ccccc2)c1=O)C(=O)c1nccs1`, for which the results for the IC50 at Serine protease 1 and on Coagulation factor X were 420 nM and 1410 nM, respectively.
